In series [1] the target is T1, PRPS2 (Homo sapiens, UniProt P11908).
T1 construct: His-tagged, pET-28a, expressed in E. coli BL21, Ni-Sepharose purified; the AlphaFold id for docking (AF-P60891-F1) is that of PRPS1
T1 sequence (P11908 2-318): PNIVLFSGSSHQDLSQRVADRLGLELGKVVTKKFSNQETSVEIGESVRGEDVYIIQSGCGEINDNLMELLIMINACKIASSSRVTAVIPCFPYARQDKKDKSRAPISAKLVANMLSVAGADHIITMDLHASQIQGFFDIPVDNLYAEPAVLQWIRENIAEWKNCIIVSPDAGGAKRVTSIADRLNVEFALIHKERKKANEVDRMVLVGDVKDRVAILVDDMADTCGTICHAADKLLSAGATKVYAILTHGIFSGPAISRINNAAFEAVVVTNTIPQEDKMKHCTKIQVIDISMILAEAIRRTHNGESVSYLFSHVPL
As to the kind of experiment: biochemical. Also on record: PRPS1/2 activity by ATP consumption, Kinase-Glo luminescence.

Series [2] concerns the target T1, PRPS2. As to the kind of experiment: ATP consumption, Kinase-Glo. In kind it is biochemical. Conditions: 300 µM ATP, 300 µM R-5-P, 5 mM MgCl2, 5 mM Na3PO4, pH 7.5, 37 °C; allosteric effector.
Series [3] concerns the target T2, PRPS1 (Homo sapiens, UniProt P60891).
T2 construct: His-tagged, pET-28a, expressed in E. coli BL21, Ni-Sepharose purified
T2 sequence (P60891 2-318): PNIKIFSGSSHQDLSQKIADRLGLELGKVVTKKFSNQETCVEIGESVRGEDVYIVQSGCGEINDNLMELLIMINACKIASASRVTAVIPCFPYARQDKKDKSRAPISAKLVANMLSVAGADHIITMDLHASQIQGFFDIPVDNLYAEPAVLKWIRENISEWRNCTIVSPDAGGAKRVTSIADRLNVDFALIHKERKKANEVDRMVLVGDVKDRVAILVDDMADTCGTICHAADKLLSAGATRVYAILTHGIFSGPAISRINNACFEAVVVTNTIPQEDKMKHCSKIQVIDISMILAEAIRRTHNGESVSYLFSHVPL
As to the kind of experiment: ATP consumption, Kinase-Glo. Conditions: 300 µM ATP, 300 µM R-5-P, 5 mM MgCl2, 5 mM Na3PO4, pH 7.5, 37 °C; allosteric effector. The class given is biochemical. Background: In Kinase-Glo more light means more ATP remaining.

The target in series [4] is T2, PRPS1. The experiment in a line: biochemical. Also on record: PRPS1/2 activity by ATP consumption, Kinase-Glo luminescence.
In a further series the test system is T3, EcSTH-LbNOX.
T3 construct: gene sthA; single-chain fusion EcSTH-Flag-LbNOX, three tandem Flag peptides as linker, expressed in HeLa cells, anti-Flag M2 purified; with NADH oxidase (water-forming)
As to the kind of experiment: thio-NAD+ reduction at […] nm / NADPH depletion at […] nm. In kind it is biochemical, Escherichia coli. Conditions: 50 mM Tris-HCl pH 7.5, 10 μM FAD, 35 °C, EcSTH site.

A further series relates to T4, HeLa Tet-on EcSTH-LbNOX.
T4 construct: HeLa with inducible Tet-on EcSTH-LbNOX, not induced
The experiment in a line: cells. Conditions: Homo sapiens, 48 h, Dox-, read-out: IC50 menadione. Also on record: Sensitivity of HeLa cells to menadione, proliferation after 48 h.

The subject of a further series is T5, HeLa Tet-on EcSTH.
T5 construct: HeLa with inducible Tet-on EcSTH, not induced
As to the kind of experiment: cells. Details: Sensitivity of HeLa cells to menadione, proliferation after 48 h. Conditions: Homo sapiens, 48 h, Dox-, read-out: IC50 menadione. How it is done:
From top to bottom: **P < 0.0001, **P < 0.0001, **P < 0.0001, two-way ANOVA. d Effects of EGFP, EcSTH, LbNOX, or EcSTH-LbNOX expression on colony formation in HeLa cells cultured with Dox, as indicated, for 10 days (n = 3 biologically independent samples). From left to right: *P = 0.013, **P = 0.0001, **P = 6.58e-07, two-tailed Student’s t-tests. e The in vivo tumor growth of HeLa cells expressing inducible Tet-on EcSTH or EcSTH-LbNOX (n = 5 biologically independent animals). 2 mg/mL Dox was added in drinking water on day 10 and updated every two days. **P < 0.0001, two-way ANOVA. f Effects of α-KB treatment on proliferation of HeLa^Tet-on EcSTH cells. Cells were counted after treatment with Dox (1 µg/mL) and α-KB (1 or 2 mM) for 48 h (n = 4 biologically independent samples). From left to right: **P = 2.44e-06, **P = 1.85e-06, two-tailed Student’s t-tests. g Effects of inhibitors on proliferation of HeLa^Tet-on EcSTH cells. Cells were pretreated with the indicated inhibitors for 2 h, and cells were counted after treatment with Dox (1 µg/mL) for 48 h (n = 3 biologically independent samples). z-VAD (z-VAD-FMK, 20 µM), NSA (necrosulfonamide, 10 µM), Ferr-1 (Ferrostain-1, 5 µM). […] Cell apoptosis was measured by Flow cytometry after treatment with Dox (1 µg/mL) and α-KB (2 mM) for 24 h (n = 3 biologically independent samples). […]

Series [5] has as its target T1, PRPS2. The experiment in a line: SPR (Biacore T200), His-PRPS2 immobilized on CM5 chip. In kind it is binding. Conditions: read-out: dissociation constant. Background: SPR reads the build-up and loss of mass on a sensor chip optically.
Substrate in series [6]: NC(=O)C1=CN([C@@H]2O[C@H](COP(=O)(O)OP(=O)(O)OC[C@H]3O[C@@H](n4cnc5c(N)ncnc54)[C@H](O)[C@@H]3O)[C@@H](O)[C@H]2O)C=CC1
The experiment in a line: purified protein. Conditions: 50 mM Tris-HCl pH 7.5, 10 μM FAD, 35 °C.

Substrate in series [7]: NC(=O)C1=CN([C@@H]2O[C@H](COP(=O)(O)OP(=O)(O)OC[C@H]3O[C@@H](n4cnc5c(N)ncnc54)[C@H](OP(=O)(O)O)[C@@H]3O)[C@@H](O)[C@H]2O)C=CC1
As to the kind of experiment: purified protein. The class given is biochemical, Escherichia coli. Conditions: 400 µM thio-NAD+, 50 mM Tris-HCl pH 7.5, 10 μM FAD, 35 °C.

Substrate in series [8]: NC(=S)c1ccc[n+]([C@@H]2O[C@H](COP(=O)(O)OP(=O)(O)OC[C@H]3O[C@@H](n4cnc5c(N)ncnc54)[C@H](O)[C@@H]3O)[C@@H](O)[C@H]2O)c1
As to the kind of experiment: purified protein. The class given is biochemical, Escherichia coli. Conditions: 400 µM NADPH, 50 mM Tris-HCl pH 7.5, 10 μM FAD, 35 °C.

As a reminder, the IC50 is the concentration at which inhibition is half-maximal. Broadly, the Km is the substrate concentration at which the rate is half of its maximum. As a reminder, the kcat is the maximal rate divided by the concentration of active sites.

Like-named read-outs stand apart in the source and are kept apart here.

Turning to `Nc1nc2c(ncn2[C@@H]2O[C@H](COP(=O)(O)OP(=O)(O)O)[C@@H](O)[C@H]2O)c(=O)[nH]1` [GDP], the IC50 is 251 µM on PRPS2 [1] (read-out: IC50 of GDP (PRPS2)) and 171 µM on PRPS1 [4] (read-out: IC50 of GDP (PRPS1)). Moreover, the “ATP consumption, Kinase-Glo” value at PRPS2 [2] is “protected PRPS2 against inhibition by ADP, but not against that by GDP”; at PRPS1 [3] it was “NADH and NAD^+ exerted no effect on the suppression of PRPS1 by ADP or GDP”.

For `NC(=O)C1=CN([C@@H]2O[C@H](COP(=O)(O)OP(=O)(O)OC[C@H]3O[C@@H](n4cnc5c(N)ncnc54)[C@H](OP(=O)(O)O)[C@@H]3O)[C@@H](O)[C@H]2O)C=CC1` [NADPH], in the series on EcSTH-LbNOX (400 µM thio-NAD+), the Km amounted to 194 µM.

For the molecule `CC1=CC(=O)c2ccccc2C1=O` [Menadione], the IC50 came out at 27.4 µM with HeLa Tet-on EcSTH-LbNOX and 27.8 µM in the series on HeLa Tet-on EcSTH.

Consider `Nc1ncnc2c1ncn2[C@@H]1O[C@H](COP(=O)(O)OP(=O)(O)O)[C@@H](O)[C@H]1O` [ADP], for which the IC50 at PRPS2 [1] (read-out: IC50 of ADP (PRPS2)) was determined as 77.4 µM; on PRPS1 [4] (read-out: IC50 of ADP (PRPS1)), 41.3 µM.

`NC(=S)c1ccc[n+]([C@@H]2O[C@H](COP(=O)(O)OP(=O)(O)OC[C@H]3O[C@@H](n4cnc5c(N)ncnc54)[C@H](O)[C@@H]3O)[C@@H](O)[C@H]2O)c1` [thio-NAD^+]: the Km in the series on EcSTH-LbNOX (400 µM NADPH) stood at 272 µM.

Consider `NC(=O)C1=CN([C@@H]2O[C@H](COP(=O)(O)OP(=O)(O)OC[C@H]3O[C@@H](n4cnc5c(N)ncnc54)[C@H](O)[C@@H]3O)[C@@H](O)[C@H]2O)C=CC1` [NADH], for which the Kd on PRPS2 [5] came to 118 µM.

B1: LbNOX (Levilactobacillus brevis ATCC 367) (protein)
chain: MKVTVVGCTHAGTFAIKQILAEHPDAEVTVYERNDVISFLSCGIALYLGGKVADPQGLFYSSPEELQKLGANVQMNHNVLAIDPDQKTVTVEDLTNHAQTTESYDKLVMTSGSWPIVPKIPGIDSDRVKLCKNWAHAQALIEDAKEAKRITVIGAGYIGAELAEAYSTTGHDVTLIDAMARVMPKYFDADFTDVIEQDYRDHGVQLALGETVESFTDSATGLTIKTDKNSYETDLAILCIGFRPNTDLLKGKVDMAPNGAIITDDYMRSSNPDIFAAGDSAAVHYNPTHQNAYIPLATNAVRQGILVGKNLVKPTVKYMGTQSSSGLALYDRTIVSTGLTLAAAKQQGLNAEQVIVEDNYRPEFMPSTEPVLMSLVFDPDTHRILGGALMSKYDVSQSANTLSVCIQNENTIDDLAMVDMLFQPNFDRPFNYLNILAQAAQAKVAQSVNA
Regarding B1, in the series “purified protein [6]”, the Km is 88.73 µM and the kcat was determined as 836.55 s⁻¹.

B2: EcSTH (Escherichia coli K-12) (protein)
chain: PHSYDYDAIVIGSGPGGEGAAMGLVKQGARVAVIERYQNVGGGCTHWGTIPSKALRHAVSRIIEFNQNPLYSDHSRLLRSSFADILNHADNVINQQTRMRQGFYERNHCEILQGNARFVDEHTLALDCPDGSVETLTAEKFVIACGSRPYHPTDVDFTHPRIYDSDSILSMHHEPRHVLIYGAGVIGCEYASIFRGMDVKVDLINTRDRLLAFLDQEMSDSLSYHFWNSGVVIRHNEEYEKIEGCDDGVIMHLKSGKKLKADCLLYANGRTGNTDSLALQNIGLETDSRGQLKVNSMYQTAQPHVYAVGDVIGYPSLASAAYDQGRIAAQALVKGEATAHLIEDIPTGIYTIPEISSVGKTEQQLTAMKVPYEVGRAQFKHLARAQIVGMNVGTLKILFHRETKEILGIHCFGERAAEIIHIGQAIMEQKGGGNTIEYFVNTTFNYPTMAEAYRVAALNGLNRLF
notes: C-terminal Flag tag (EcSTH-Flag), human-codon cDNA, expressed in HeLa cells, anti-Flag M2 purified
Consider B2, for which, in “purified protein [7]”, the Km worked out at 137.1 µM and the kcat stood at 81.73 s⁻¹. For the same molecule, in “purified protein [8]”, the Km is reported as 242.8 µM and the kcat was 82.73 s⁻¹.

For the origin of these results see publication PMC9672040, “Identification of purine biosynthesis as an NADH-sensing pathway to mediate energy stress” (Nature Communications, 2022).
